Results on two compounds are retold here after ChEMBL document CHEMBL3045223, “Synthesis, nematicidal and antimicrobial properties of Bis-[4-methoxy-3-[3-(4-fluorophenyl)-6-(4-methylphenyl)-2(aryl)-tetrahydro-2H-pyrazolo[3,4-d]thiazol-5-yl]phenyl]methanes” (2009).

Holding throughout (type): functional
In assay [1] the test system is Chromobacterium violaceum. Put plainly: Antibacterial activity against Chromobacterium violaceum MTCC 2656 assessed as inhibition zones at 100 ug/disk at 37 degC for 24 hr. The conditions noted are these: MTCC 2656, 24 h, read-out: IZ.
The test system of assay [2] is Pseudomonas aeruginosa. The experiment in a line: Antibacterial activity against Pseudomonas aeruginosa MTCC 741 assessed as growth arrest at 37 degC for 24 hr. The following applies: MTCC 741, 24 h.
Assay [3] deals with Bacillus subtilis. The experiment in a line: Antibacterial activity against Bacillus subtilis MTCC 441 assessed as growth arrest at 37 degC for 24 hr. The conditions noted are these: MTCC 441, 24 h.
The test system of assay [4] is Klebsiella aerogenes. The experiment in a line: Antibacterial activity against Enterobacter aerogenes MTCC 39 assessed as growth arrest at 37 degC for 24 hr. The conditions noted are these: MTCC 39, 24 h.
Assay [5] concerns Chromobacterium violaceum. The experiment in a line: Antibacterial activity against Chromobacterium violaceum MTCC 2656 assessed as growth arrest at 37 degC for 24 hr. The following applies: MTCC 2656, 24 h.
Assay [6] concerns Bacillus subtilis. Put plainly: Antibacterial activity against Bacillus subtilis MTCC 441 assessed as inhibition zones at 100 ug/disk at 37 degC for 24 hr. The conditions noted are these: MTCC 441, 24 h, read-out: IZ.
In assay [7] the test system is Klebsiella aerogenes. The experiment in a line: Antibacterial activity against Enterobacter aerogenes MTCC 39 assessed as inhibition zones at 100 ug/disk at 37 degC for 24 hr. The following applies: MTCC 39, 24 h, read-out: IZ.
Assay [8] has as its system Staphylococcus aureus. Put plainly: Antibacterial activity against Staphylococcus aureus MTCC 96 assessed as inhibition zones at 100 ug/disc at 37 degC for 24 hr. The conditions noted are these: MTCC 96, 24 h, read-out: IZ.
Assay [9] has as its system Lysinibacillus sphaericus. Put plainly: Antibacterial activity against Lysinibacillus sphaericus MTCC 11 assessed as inhibition zones at 100 ug/disk at 37 degC for 24 hr. The conditions noted are these: MTCC 11, 24 h, read-out: IZ.
The test system of assay [10] is Staphylococcus aureus. The experiment in a line: Antibacterial activity against Staphylococcus aureus MTCC 96 assessed as growth arrest at 37 degC for 24 hr. The following applies: MTCC 96, 24 h.
Assay [11] has as its system Pseudomonas aeruginosa. Put plainly: Antibacterial activity against Pseudomonas aeruginosa MTCC 741 assessed as inhibition zones at 100 ug/disk at 37 degC for 24 hr. The conditions noted are these: MTCC 741, 24 h, read-out: IZ.
Assay [12] concerns Lysinibacillus sphaericus. The experiment in a line: Antibacterial activity against Lysinibacillus sphaericus MTCC 11 assessed as growth arrest at 37 degC for 24 hr. The conditions noted are these: MTCC 11, 24 h.
Assay [13] has as its system Aspergillus fumigatus. The experiment in a line: Antifungal activity against Aspergillus fumigatus HIC 6094 assessed as growth inhibition at 37 degC for 48 hr. The conditions noted are these: HIC 6094, 48 h.
Assay [14] deals with Trichophyton rubrum. Put plainly: Antifungal activity against Trichophyton rubrum IFO 9185 assessed as growth inhibition at 37 degC for 48 hr. The following applies: IFO 9185, 48 h.
The test system of assay [15] is Trichophyton mentagrophytes. The experiment in a line: Antifungal activity against Trichophyton mentagrophytes IFO 40996 assessed as growth inhibition at 100 ug/disc at 37 degC for 48 hr. The conditions noted are these: IFO 40996, 48 h, read-out: IZ.
For assay [16], the system named is Aspergillus fumigatus. Put plainly: Antifungal activity against Aspergillus fumigatus HIC 6094 assessed as growth inhibition at 100 ug/disc at 37 degC for 48 hr. The following applies: HIC 6094, 48 h, read-out: IZ.
The subject of assay [17] is Trichophyton mentagrophytes. Put plainly: Antifungal activity against Trichophyton mentagrophytes IFO 40996 assessed as growth inhibition at 37 degC for 48 hr. The following applies: IFO 40996, 48 h.
Assay [18] concerns Trichophyton rubrum. The experiment in a line: Antifungal activity against Trichophyton rubrum IFO 9185 assessed as growth inhibition at 100 ug/disk at 37 degC for 48 hr. The conditions noted are these: IFO 9185, 48 h, read-out: IZ.
The subject of assay [19] is Candida albicans. Put plainly: Antifungal activity against Candida albicans ATCC 10231 assessed as growth inhibition at 100 ug/disk at 37 degC for 48 hr. The conditions noted are these: ATCC 10231, 48 h, read-out: IZ.
Assay [20] concerns Candida albicans. The experiment in a line: Antifungal activity against Candida albicans ATCC 10231 assessed as growth inhibition at 37 degC for 48 hr. The following applies: ATCC 10231, 48 h.

The structures appear in SMILES notation. In brackets after ≈: the same amount, converted by molar mass.

For the compound `CN[C@@H]1[C@H](O[C@H]2[C@H](O[C@H]3[C@H](O)[C@@H](O)[C@H](N=C(N)N)[C@@H](O)[C@@H]3N=C(N)N)O[C@@H](C)[C@]2(O)C=O)O[C@@H](CO)[C@H](O)[C@H]1O` [STREPTOMYCIN], the zone of inhibition at 100 µg/disc was 20 mm in assay [1]; 30 mm in assay [6]; 25 mm in [7]; 41 mm in [8]; 20 mm in assay [9]; 15 mm in assay [11]. Further, the MBC in assay [2] was determined as 6.25 µg/mL (≈ 10.7 µM); in [3] it was 12.5 µg/mL (≈ 21.5 µM); in assay [4], 6.25 µg/mL (≈ 10.7 µM); in assay [5], 6.25 µg/mL (≈ 10.7 µM); in [10], 12.5 µg/mL (≈ 21.5 µM); in [12], 25 µg/mL (≈ 43 µM). In addition, the MIC in assay [2] is 1.56 µg/mL (≈ 2.68 µM); in [3] it was 6.25 µg/mL (≈ 10.7 µM); in [4], 1.56 µg/mL (≈ 2.68 µM); in assay [5] it was 3.12 µg/mL (≈ 5.36 µM); in [10], 6.25 µg/mL (≈ 10.7 µM); in [12], 6.25 µg/mL (≈ 10.7 µM).

In the case of `C[C@@H]1[C@H](O)[C@@H](C)/C=C/C=C/C=C/C=C/C=C/C=C/C=C/[C@H](O[C@@H]2O[C@H](C)[C@@H](O)[C@H](N)[C@@H]2O)C[C@@H]2O[C@](O)(C[C@@H](O)C[C@@H](O)[C@H](O)CC[C@@H](O)C[C@@H](O)CC(=O)O[C@H]1C)C[C@H](O)[C@H]2C(=O)O` [AMPHOTERICIN B], the MBC in [13] is 6.25 µg/mL (≈ 6.76 µM); in assay [14], 12.5 µg/mL (≈ 13.5 µM); in assay [17], 12.5 µg/mL (≈ 13.5 µM); in assay [20], 12.5 µg/mL (≈ 13.5 µM). Besides, the MIC in assay [13] stood at 3.12 µg/mL (≈ 3.38 µM); in [14], 3.12 µg/mL (≈ 3.38 µM); in assay [17], 3.12 µg/mL (≈ 3.38 µM); in assay [20] it was 6.25 µg/mL (≈ 6.76 µM). The zone of inhibition at 100 µg/disc in assay [15] amounted to 18 mm; in assay [16], 20 mm; in assay [18], 20 mm; in assay [19], 25 mm.

The term MIC denotes the least concentration at which growth counts as inhibited.
